# Data as given in patent EP2826473A1, “NOVEL USE OF PATCHOULOL” (Chengdu Huasun Group Inc., Ltd., priority 2012, dated 2013).
# Where two headings read alike, the source gives them in different places.
# Legend:
# Klebsiella pneumonia = assay: in vitro bacteriostatic activity, agar dilution MIC, quality control strain and summary; format: cell-based; conditions: Klebsiella pneumoniae
# Enterococcus faecalis = assay: in vitro bacteriostatic activity, agar dilution MIC; format: cell-based; conditions: Enterococcus faecalis, read-out: MIC
# [1] = tested on: humoral immunity and mononuclear phagocyte functions; conditions: intragastric 40 and 80 mg/(kg·d) for successive 7 days; cited from earlier work
# [2] = tested on: influenza virus type A (H2N2); conditions: in vitro; cited from earlier work
# Streptococcus bovis = assay: in vitro bacteriostatic activity, agar dilution MIC; format: cell-based; conditions: Streptococcus equinus; Streptococcus bovis 12-3
# [3] = tested on: Staphylococcus aureus ATCC 25923; assay: prevention of bacterial infection, colony count on patchoulol-coated tubes; conditions: cultured 7 days at 37°C
# [4] = tested on: Staphylococcus haemolyticus; assay: in vitro bacteriostatic activity, agar dilution MIC; format: cell-based
# Enterococcus faecium = assay: as above; format: cell-based; conditions: Enterococcus faecium, read-out: MIC
# Staphylococcus aureus = assay: in vitro bacteriostatic activity, agar dilution MIC, quality control strains; format: cell-based; conditions: read-out: MIC
# Staphylococcus wameri = assay: in vitro bacteriostatic activity, agar dilution MIC; format: cell-based
# [5] = tested on: Staphylococcus epidermidis ATCC 12228; assay: in vitro bacteriostatic activity, agar dilution MIC, quality control strain; format: cell-based; conditions: ATCC12228; Staphylococcus epidermidis ATCC 12228; read-out: MIC
smiles,measurement,setting,value
"C[C@H]1CC[C@@]2(O)C(C)(C)[C@@H]3CC[C@@]2(C)[C@H]1C3 (stereo in doubt) [PC, (1R,4S,4aS,6R,8aS)-octahydro-4,8a,9,9-tetramethyl-1,6-methanonaphthalen-1(2H)-ol]",MIC,"Klebsiella pneumonia; ATCC700603, Klebsiella pneumonia ATCC 700603, read-out: MIC",> 768 µg/mL
same,MIC,"Klebsiella pneumonia; summary, Klebsiella pneumonia ESBLs^-/ESBLs^+, read-out: MIC values",≥ 768 µg/mL
same,MIC,"Enterococcus faecalis; ATCC29212, Enterococcus faecalis ATCC 29212",128 µg/mL
same,MIC,"Enterococcus faecalis; ATCC51299, Enterococcus faecalis (high endurance) ATCC 51299",128 µg/mL
same,MIC,Enterococcus faecalis; Enterococcus faecalis 12-11,> 128 µg/mL
same,MIC,Enterococcus faecalis; Enterococcus faecalis 12-12,32 µg/mL
same,MIC,Enterococcus faecalis; Enterococcus faecalis 12-13,128 µg/mL
same,MIC,Enterococcus faecalis; Enterococcus faecalis 12-14,64 µg/mL
same,MIC,Enterococcus faecalis; Enterococcus faecalis 12-17,128 µg/mL
same,MIC,Enterococcus faecalis; Enterococcus faecalis 12-18,128 µg/mL
same,MIC,Enterococcus faecalis; Enterococcus faecalis 12-19,128 µg/mL
same,MIC,Enterococcus faecalis; Enterococcus faecalis 12-20,128 µg/mL
same,MIC,Enterococcus faecalis; Enterococcus faecalis 12-21,64 µg/mL
same,MIC,Enterococcus faecalis; Enterococcus faecalis 12-22,64 µg/mL
same,"thymus gland index, spleen index, sanguinin content, and clearance index",[1],effectively improve
same,IC50,[2],4.03 ± 0.23 µM
same,MIC,Streptococcus bovis,50 µg/mL
same,bacterial colony numbers,"[3]; 400, 200, 100 and 50 µg/ml, compared with 0 µg/ml",decrease
same,bacterial colony numbers,[3]; patchoulol on intraductal membranes more than or equal to 600 µg/ml,0
same,MIC,[4],100 µg/mL
same,MIC,"Enterococcus faecium; ATCC33186, Enterococcus faecium ATCC 33186",128 µg/mL
same,MIC,Enterococcus faecium; Enterococcus faecium 12-7,64 µg/mL
same,MIC,Enterococcus faecium; Enterococcus faecium 12-8,64 µg/mL
same,MIC,Enterococcus faecium; Enterococcus faecium 12-9,64 µg/mL
same,MIC,Enterococcus faecium; Enterococcus faecium 12-10,32 µg/mL
same,MIC,Enterococcus faecium; Enterococcus faecium 12-11,32 µg/mL
same,MIC,Enterococcus faecium; Enterococcus faecium 12-12,64 µg/mL
same,MIC,Enterococcus faecium; Enterococcus faecium 12-13,64 µg/mL
same,MIC,Enterococcus faecium; Enterococcus faecium 12-14,64 µg/mL
same,MIC,Enterococcus faecium; Enterococcus faecium 12-15,32 µg/mL
same,MIC,Enterococcus faecium; Enterococcus faecium 12-16,32 µg/mL
same,MIC,"Staphylococcus aureus; ATCC25923, Staphylococcus aureus ATCC 25923",1.5 µg/mL
same,MIC,"Staphylococcus aureus; ATCC29213, Staphylococcus aureus ATCC 29213",64 µg/mL
same,MIC,Staphylococcus wameri,50 µg/mL
same,MIC,[5],64 µg/mL
